Experimental data from patent publication US20250263496A1, “Neutrophil-Activating Therapy for the Treatment of Cancer” (The Board of Trustees of the Leland Stanford Junior …, priority 2024, published 2025).

Key:
Format in all cases: in vivo, mouse
Settings in all cases: agent given prior to neutrophil-activating therapy
LTB4 = LTB4 ELISA of B16 tumors
Protocol: LTB4 ELISA. Tumors were dissected away from surrounding fat 24 hours post-treatment and lysed in PBS using 3 mm zirconium beads (Benchmark Scientific) in the BeadBug Microtube Homogenizer (Benchmark Scientific) for 2 cycles of 45 seconds at 3000 rpm. Crude lysate was centrifuged for 15 minutes at 16000×g at 4° C. to obtain clarified lysate. Clarified lysate was deproteinized by ethanol precipitation by adding 4 volumes of 100% ethanol, incubating on ice for 5 minutes, and centrifuging for 10 minutes at 3000×g at 4° C. Deproteinized supernatant was transferred to a new tube, ethanol was removed by evaporation at room temperature, and samples were brought to the appropriate volume in ELISA assay buffer. LTB4 content was determined with the Leukotriene B4 ELISA kit (Cayman Chemical 520111) according to the manufacturer's instructions and read with a Victor X4 fluorescence microplate reader (PerkinElmer).
Ex vivo neutrophil LTB4 assay. B16 tumors were harvested from mice 12 hours after treatment with TNF+anti-CD40+anti-gp75 and digested with collagenase IV and DNase I as described above. […] Following the incubation, the supernatant was collected, centrifuged to remove cells and debris, and analyzed for LTB4 using the Leukotriene B4 ELISA kit (Cayman Chemical 520111) as described above.

neutrophils = experiment: Flow cytometry of neutrophils in B16 tumors and blood
Protocol: Tumors were digested with collagenase IV and DNase I as described above. Following digestion, tissue was mashed through a […] cell strainer (Falcon), washed, red blood cells were lysed with ACK buffer for 1 minute, and cells were washed again prior to antibody staining. Blood was harvested into PBS plus 20 mM EDTA by cardiac puncture or retro-orbital bleed, lysed in ACK buffer for 5 minutes, and washed prior to antibody staining. Bone marrow was harvested by grinding the femur and tibia in a mortar and pestle and mashing through a […] strainer (Falcon), or by flushing femurs with a syringe and needle, then lysed in ACK buffer for 5 minutes and washed prior to antibody staining. Spleens were harvested by mashing through a […] cell strainer (Falcon), then lysed in ACK buffer for 5 minutes and washed prior to antibody staining.
Live cells were stained with antibodies on ice for 20 minutes in FACS buffer (HBSS 1% BSA 5 mM EDTA) with Brilliant Stain Buffer Plus (BD). Following staining, cells were washed twice in FACS buffer and resuspended in 1 μg/ml DAPI plus AccuCount Fluorescent Particles (Spherotech) for absolute count determination. In some experiments, live cells were stained with Live/Dead Fixable Blue Stain (Invitrogen) in HBSS on ice for 20 minutes prior to antibody staining, and DAPI was not used. […]

B16 tumors = experiment: TUNEL staining of cell death in B16 tumors
Protocol: Tumors were dissected away from surrounding fat, fixed in 2% paraformaldehyde for 2 hours at 4° C., equilibrated in a 30% sucrose solution at 4° C., and embedded and frozen in O.C.T. Compound (Tissue-Tek). Slides were cut to […] and blocked with 1% BSA and 10% serum matched to the secondary antibody species. The following antibodies were used for immunofluorescence: PE anti-Ly6G (clone 1A8, BioLegend), DyLight 650 anti-gp75 (clone TA99, Bio X Cell, labeled using DyLight 650 NHS Ester (Thermo Scientific)), fluorescein anti-gp75 (clone TA99, Bio X Cell, labeled using NHS-Fluorescein (Thermo Scientific)), FITC anti-DNA/RNA damage (clone 15A3, recognizing 8-hydroxy-2′-deoxyguanosine/8-oxo-7,8-dihydroguanine/8-oxo-7,8-dihydroguanosine, Abcam), and AF647 anti-C3 (clone 11H9, Novus Biologicals). DAPI (Invitrogen) was stained at 1 μg/ml. FITC/fluorescein signal was amplified using AF488 anti-FITC (ThermoFisher Scientific), and PE was amplified using biotin anti-PE (clone PE001, BioLegend) followed by DyLight 594 streptavidin (BioLegend) or DyLight 649 streptavidin (BioLegend). Prior to use of biotinylated antibodies, endogenous biotin was blocked using the Avidin/Biotin Blocking Kit (Vector Laboratories). Prior to DNA/RNA damage staining, sections were permeabilized with 0.1% Triton X-100 in 0.1% sodium citrate. TUNEL (Terminal deoxynucleotidyl transferase dUTP nick end labeling) staining was performed using the In Situ Cell Death Detection Kit, TMR Red (Roche) according to the manufacturer's instructions. […] All parameters that were quantified were acquired with identical microscope settings and adjusted identically in Photoshop, and all adjustments were applied equally across the entire tumor. Quantification was performed in ImageJ, using the wand tool on the overlaid multichannel image to draw a border around the tumor and then measuring the percent area within that border with signal for the channel of the marker quantified.

## N#Cc1cc(-c2n[nH]c(-c3ccncc3)n2)ccn1 [topiroxostat]
LTB4
  effect of agent on LTB4 production: did not prevent
neutrophils
  effect of agent on treatment-induced neutrophil tumor infiltration: did not prevent neutrophil infiltration
B16 tumors
  effect of agent on treatment-induced tumor cell death: reduced cell death
